Test results taken from patent publication US10988433B2, “Cyclohexyl GPR40 agonists for the treatment of type II diabetes” (Janssen Pharmaceutica NV, priority 2016, dated 2021).

Legend:
[1] = target: T1, human GPR40 (Homo sapiens, UniProt O14842); assay: GPR40 calcium flux assay, HEK293 cells stably expressing human GPR40; type: cell-based; settings: transfected HEK293 cells stably expressing human GPR40, Fluo 8 dye, read-out: hGPR40 Ca2+ Assay EC50
T1 construct: expressed in transfected cells
Experimental: (§1) Compounds were tested in a calcium flux assay using transfected HEK293 cells stably expressing either human GPR40 or rat GPR40. Human GPR40 expressing cells were cultured in DMEM-High Glucose media supplemented with 10% fetal bovine serum, 1×L-Glutamine, 1×Penicillin/Streptomycin and 500 μg/mL G418. Rat GPR40 expressing cells were cultured in DMEM-High Glucose media supplemented with 10% fetal bovine serum and 1 μg/mL puromycin. Cells were plated into poly-D-lysine coated 384-well plates and cultured overnight in a 37° C. humidified tissue culture incubator under 5% CO2/[…] atmosphere. On the day of the experiment, the culture media was replaced with assay buffer (HBSS, 20 mM HEPES, 0.1% BSA) and the cells incubated at 37° C. for 1 h. Calcium-sensitive fluorescent dye (Fluo 8 No-Wash Calcium Dye, ABD Bioquest) was then added and the cells incubated for another 30 min at 37° C. followed by 15 min at room temperature while protected from the light. The cell plate and a plate of diluted compounds of Formula (I) were loaded into a fluorescent plate reader that added compounds onto the cells while measuring the fluorescence intensity of each well. The plate reader recorded fluorescence intensity at 1 second intervals for 8 min and provided the data for analysis in an Excel format. EC50 values were calculated using Prism (GraphPad) software.

[2] = target: T2, rat GPR40 (Rattus norvegicus, UniProt Q8K3T4); assay: GPR40 calcium flux assay, HEK293 cells stably expressing rat GPR40; type: cell-based; settings: transfected HEK293 cells stably expressing rat GPR40, Fluo 8 dye, read-out: rGPR40 Ca2+ Assay EC50
T2 construct: expressed in transfected cells
Experimental: as §1

T2 sequence (Q8K3T4 whole entry): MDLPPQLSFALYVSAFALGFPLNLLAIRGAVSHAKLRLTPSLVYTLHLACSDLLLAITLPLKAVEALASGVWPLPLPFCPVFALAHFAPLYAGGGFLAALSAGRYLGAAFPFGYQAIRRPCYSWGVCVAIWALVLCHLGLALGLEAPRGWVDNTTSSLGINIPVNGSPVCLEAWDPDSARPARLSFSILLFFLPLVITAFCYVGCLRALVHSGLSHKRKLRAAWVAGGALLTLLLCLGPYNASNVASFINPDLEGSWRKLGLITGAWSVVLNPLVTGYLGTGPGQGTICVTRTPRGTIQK
T1 sequence (O14842 whole entry): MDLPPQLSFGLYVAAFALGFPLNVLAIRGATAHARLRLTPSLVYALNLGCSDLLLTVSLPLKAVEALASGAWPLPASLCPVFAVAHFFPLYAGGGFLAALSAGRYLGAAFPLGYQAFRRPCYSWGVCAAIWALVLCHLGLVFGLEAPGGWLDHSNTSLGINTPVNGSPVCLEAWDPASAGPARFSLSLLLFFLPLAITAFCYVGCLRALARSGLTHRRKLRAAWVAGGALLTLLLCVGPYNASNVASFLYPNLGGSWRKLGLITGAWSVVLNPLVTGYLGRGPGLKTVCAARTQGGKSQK

Structure (SMILES) | EC50 [1] [µM] | EC50 [2] [µM]
COc1ccc(F)c([C@H]2CC[C@H](COc3cccc([C@H](C4CC4)[C@](C)(F)C(=O)O)c3)CC2)c1 [Cpd 60, (2S,3S)-3-Cyclopropyl-2-fluoro-3-(3-(((1r,4S)-4-(2-fluoro-5-methoxyphenyl)cyclohexyl)methoxy)phenyl)-2-methylpropanoic acid] | 0.00605 | 0.00688
COc1cc(C2CCC(COc3cccc([C@@H](CC(=O)O)C4CC4)c3)C(CC(C)C)C2)c(F)cn1 (stereo partly drawn) [Cpd 30, (3S)-3-Cyclopropyl-3-(3-((4-(5-fluoro-2-methoxypyridin-4-yl)-2-isobutylcyclohexyl)methoxy)phenyl)propanoic acid] | 0.0021 | 0.0294
COc1ccc(F)c([C@H]2CC[C@H](COc3cc(C(CC(=O)O)C4CC4)ccn3)CC2)c1 (stereo partly drawn) [Cpd 4, 3-Cyclopropyl-3-(2-(((1r,4r)-4-(2-fluoro-5-methoxyphenyl)cyclohexyl)methoxy)pyridin-4-yl) propanoic acid] | 0.0007 | 0.0026
COc1cc([C@H]2CC[C@@H](COc3ccnc(C(CC(=O)O)C4CC4)c3)CC2)c(F)cn1 (stereo partly drawn) [Cpd 32, 3-Cyclopropyl-3-(4-(((1s,4s)-4-(5-fluoro-2-methoxypyridin-4-yl)cyclohexyl)methoxy)pyridine-2-yl)propanoic acid] | 0.059 | 0.256
COc1cc([C@H]2CC[C@@H](COc3cccc([C@@H](CC(=O)O)C4CC4)c3)CC2)c(F)cn1 [Cpd 10, (S)-3-Cyclopropyl-3-(3-(((1s,4R)-4-(5-fluoro-2-methoxypyridin-4-yl)cyclohexyl)methoxy)phenyl)propanoic acid] | 0.0269 | 0.076
COc1cc([C@H]2CC[C@H](COc3cccc([C@@H](CC(=O)O)C4CC4)c3)CC2)c(F)cn1 [Cpd 9, (S)-3-Cyclopropyl-3-(3-(((1r,4S)-4-(5-fluoro-2-methoxypyridin-4-yl)cyclohexyl)methoxy)phenyl)propanoic acid] | 0.0005 | 0.0028
COc1ccc(F)c([C@H]2CC[C@H](/C=C/c3cccc([C@@H](CC(=O)O)C4CC4)c3)CC2)c1 [Cpd 28, (S)-3-cyclopropyl-3-(3-((E)-2-((1r,4S)-4-(2-fluoro-5-methoxyphenyl)cyclohexyl)vinyl)phenyl)propanoic acid] | 0.0026 | 0.0061
COc1ccc(F)c([C@H]2CC[C@@H](COc3cc(C(CC(=O)O)C4CC4)ccn3)CC2)c1 (stereo partly drawn) [Cpd 5, 3-Cyclopropyl-3-(2-(((1 s,4s)-4-(2-fluoro-5-methoxyphenyl)cyclohexyl)methoxy)pyridin-4-yl)propanoic acid] | 0.0756 | 0.146
COc1ccc(F)c([C@]2(OC)CC[C@H](COc3cccc([C@@H](CC(=O)O)C4CC4)c3)CC2)c1 [Cpd 12, (S)-3-Cyclopropyl-3-(3-(((1r,4S)-4-(2-fluoro-5-methoxyphenyl)-4-methoxycyclohexyl)methoxy)phenyl)propanoic acid] | 0.0138 | 0.152
COc1ccc(F)c(C2CCC(COc3cccc([C@@H](CC(=O)O)C4CC4)c3)C(CC(C)C)C2)c1 (stereo partly drawn) [Cpd 29, (3S)-3-Cyclopropyl-3-(3-((4-(2-fluoro-5-methoxyphenyl)-2-isobutylcyclohexyl)methoxy)phenyl)propanoic acid] | 0.0179 | 0.0409
COc1ccc(F)c([C@]2(F)CC[C@@H](COc3cccc([C@@H](CC(=O)O)C4CC4)c3)CC2)c1 [Cpd 20, (S)-3-Cyclopropyl-3-(3-(((1s,4R)-4-fluoro-4-(2-fluoro-5-methoxyphenyl)cyclohexyl)methoxy)phenyl)propanoic acid] | 0.0099 | 0.0407

Further lines, results first:

EC50 [1] [µM] | EC50 [2] [µM] | Structure (SMILES)
0.0037 | 0.0173 | COc1cc(C2CCC(COc3cccc([C@@H](CC(=O)O)C4CC4)c3)C(C)C2)c(F)cn1 (stereo partly drawn) [Cpd 33, (3S)-3-Cyclopropyl-3-(3-((4-(5-fluoro-2-methoxypyridin-4-yl)-2-methylcyclohexyl)methoxy)phenyl)propanoic acid]
5.8 | > 10 | COc1cncc(C2CCC(COc3cc([C@@H](CC(=O)O)C4CC4)ccn3)CC2)n1 (stereo partly drawn) [Cpd 46, (S)-3-Cyclopropyl-3-(2-((4-(6-methoxypyrazin-2-yl)cyclohexyl)methoxy)pyridin-4-yl)propanoic acid]
0.003 | 0.0144 | COc1ccc(F)c([C@H]2CC[C@H](COc3cccc(C(CC(=O)O)C4CC4)c3)CC2)c1 (mixture of isomers) [Cpd 56, 3-Cyclopropyl-3-(3-(((1r,4r)-4-(2-fluoro-5-methoxyphenyl)cyclohexyl)methoxy)phenyl) propanoic acid]
0.022 | 0.021 | COc1ccc(F)c([C@H]2CC[C@H](CNc3cccc([C@@H](CC(=O)O)C4CC4)c3)CC2)c1 [Cpd 40, (S)-3-Cyclopropyl-3-(3-((((1r,4 S)-4-(2-fluoro-5-methoxyphenyl)cyclohexyl)methyl)amino)phenyl)propanoic acid]
0.0141 | 0.0162 | C[C@](F)(C(=O)O)[C@H](c1cccc(OC[C@H]2CC[C@H](c3cc(OC(F)(F)F)ccc3F)CC2)c1)C1CC1 [Cpd 74, (2R,3S)-3-Cyclopropyl-2-fluoro-3-(3-(((1r,4S)-4-(2-fluoro-5-(trifluoromethoxy)phenyl)cyclohexyl)methoxy)phenyl)-2-methylpropanoic acid]
0.5 | 0.656 | CCOC(CC(=O)O)c1cccc(OC[C@H]2CC[C@@H](c3cc(OC)ccc3F)CC2)c1 (stereo partly drawn) [Cpd 50, 3-Ethoxy-3-(3-(((1s,4s)-4-(2-fluoro-5-methoxyphenyl)cyclohexyl)methoxy)phenyl) propanoic acid]
0.0022 | 0.0055 | COc1ccc(F)c(C2CCC(OCc3cccc([C@H](C4CC4)C(C)(F)C(=O)O)c3)CC2)c1 (stereo partly drawn) [Cpd 78, (3S)-3-Cyclopropyl-2-fluoro-3-(3-(((4-(2-fluoro-5-methoxyphenyl)cyclohexyl)oxy)methyl)phenyl)-2-methylpropanoic acid]
0.258 | 0.855 | COc1cc([C@]2(OC)CC[C@H](COc3cc([C@@H](CC(=O)O)C4CC4)ccn3)CC2)c(F)cn1 [Cpd 45, (S)-3-Cyclopropyl-3-(2-(((1r,4S)-4-(5-fluoro-2-methoxypyridin-4-yl)-4-methoxycyclohexyl)methoxy)pyridin-4-yl)propanoic acid]
0.0003 | 0.00023 | COc1ccc(F)c([C@H]2CC[C@H](COc3cccc([C@H](C4CC4)C(C)(F)C(=O)O)c3)CC2)c1 (stereo partly drawn) [Cpd 58, (3S)-3-Cyclopropyl-2-fluoro-3-(3-(((1r,4S)-4-(2-fluoro-5-methoxyphenyl)cyclohexyl)methoxy)phenyl)-2-methylpropanoic acid]
0.00019 | 0.00056 | COc1ccc(Cl)c(C2CCC(COc3cccc([C@H](C4CC4)[C@@](C)(F)C(=O)O)c3)CC2)c1 (stereo partly drawn) [Cpd 64, (2R,3S)-3-(3-((4-(2-Chloro-5-methoxyphenyl)cyclohexyl)methoxy)phenyl)-3-cyclopropyl-2-fluoro-2-methylpropanoic acid]
0.00022 | 0.00046 | COc1ccc(F)c([C@H]2CC[C@H](CCc3cccc([C@H](C4CC4)C(C)(F)C(=O)O)c3)CC2)c1 (stereo partly drawn) [Cpd 73, (3S)-3-Cyclopropyl-2-fluoro-3-(3-(2-((1r,4R)-4-(2-fluoro-5-methoxyphenyl)cyclohexyl)ethyl)phenyl)-2-methylpropanoic acid]
0.0017 | 0.0092 | COc1ccc(F)c([C@H]2CC[C@H](CCc3cccc([C@@H](CC(=O)O)C4CC4)c3)CC2)c1 [Cpd 36, (S)-3-Cyclopropyl-3-(3-(2-((1r,4R)-4-(2-fluoro-5-methoxyphenyl)cyclohexyl)ethyl)phenyl) propanoic acid]
0.00025 | 0.0004 | COc1cccc(C2CCC(COc3cccc([C@H](C4CC4)C(C)(F)C(=O)O)c3)CC2)c1 (stereo partly drawn) [Cpd 66, (3S)-3-Cyclopropyl-2-fluoro-3-(3-((4-(3-methoxyphenyl)cyclohexyl)methoxy)phenyl)-2-methylpropanoic acid]
0.079 | 0.22 | COc1cc([C@H]2CC[C@H](COc3cc([C@H](C4CC4)C(C)(F)C(=O)O)ccn3)CC2)c(F)cn1 (stereo partly drawn) [Cpd 80, (3S)-3-Cyclopropyl-2-fluoro-3-(2-(((1r,4S)-4-(5-fluoro-2-methoxypyridin-4-yl)cyclohexyl)methoxy)pyridin-4-yl)-2-methylpropanoic acid]
0.687 | 1.32 | COc1ccc(F)c([C@H]2CC[C@@H](COc3cccc([C@H](CC(=O)O)C4CC4)c3)CC2)c1 [Cpd 37, (R)-3-Cyclopropyl-3-(3-(((1s,4S)-4-(2-fluoro-5-methoxyphenyl)cyclohexyl)methoxy)phenyl)propanoic acid]
0.013 | 0.028 | COc1ccc(F)c([C@H]2CC[C@H](COc3cc([C@H](C4CC4)C(C)(F)C(=O)O)ccn3)CC2)c1 (stereo partly drawn) [Cpd 79, (3S)-3-Cyclopropyl-2-fluoro-3-(2-(((1r,4S)-4-(2-fluoro-5-methoxyphenyl)cyclohexyl)methoxy)pyridin-4-yl)-2-methylpropanoic acid]
